Experimental data as given in patent US4395408A, “Steroids” (Roussel Uclaf, priority 1980, dated 1983).
Structures can show the parent of a compound that is named as a salt.

Test system: mice
Assay: Acute Toxicity (lethal dose LD0)
Format: in vivo
Conditions: for DL0 I.P. (maximum dose which did not cause any mortality after 8 days): intraperitoneal

Compound	DL0 I.P. (maximum dose which did not cause any mortality after 8 days)	DL0 oral (maximum dose which did not cause any mortality after 8 days)
C[C@H](O)[C@H]1CC[C@H]2[C@@H]3CC[C@H]4C[C@@H](N)CC[C@@H]4[C@H]3CC[C@]12C [Example 5, (20S)3β-amino-19-nor-5α-pregnane-20-ol hydrochloride]	100 mg/kg	400 mg/kg
C[C@H](O)[C@@]1(O)CC[C@H]2[C@@H]3CC[C@H]4C[C@H](N)CC[C@]4(C)[C@H]3CC[C@@]21C [Example 3, (20S)3α-amino-5α-pregnane-17α,20-diol hydrochloride]	60 mg/kg	200 mg/kg
CC(=O)[C@@]1(O)CC[C@H]2[C@@H]3CC[C@H]4C[C@H](N)CC[C@]4(C)[C@H]3CC[C@@]21C [Example 6, 3α-amino-5α-pregnane-17α-ol-20-one hydrochloride]	60 mg/kg	≥ 400 mg/kg
C/C=C1/CC[C@H]2[C@@H]3CC[C@H]4C[C@H](N)CC[C@]4(C)[C@H]3CC[C@]12C [Example 1, (Z) 3α-amino-Δ^17(20) -5α-pregnene hydrochloride]	100 mg/kg	≥ 400 mg/kg
